Results from PubChem BioAssay (NCI).
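A five-concentration, 48-hour dose response in 96-well plates underlies each endpoint, interpolated linearly between surrounding concentrations. Abbreviation: GI50, concentration required for 50% inhibition of growth. TGI: concentration producing complete growth inhibition.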

Key:
Test in all cases: NCI anticancer screen, dose series, 48 h
HOP-92 NSCLC = system: HOP-92 NSCLC
IGROV1 ovarian = system: IGROV1 ovarian
MDA-MB-231 breast = system: MDA-MB-231 breast
SF-268 CNS = system: SF-268 CNS
SNB-19 CNS = system: SNB-19 CNS
SW-620 colon = system: SW-620 colon
CAKI-1 renal = system: CAKI-1 renal
SR leukemia = system: SR leukemia

Compound	GI50 (HOP-92 NSCLC) [µM]	TGI (HOP-92 NSCLC) [µM]	GI50 (IGROV1 ovarian) [µM]	TGI (IGROV1 ovarian) [µM]	GI50 (MDA-MB-231 breast) [µM]	TGI (MDA-MB-231 breast) [µM]	GI50 (SF-268 CNS) [µM]	TGI (SF-268 CNS) [µM]	GI50 (SNB-19 CNS) [µM]	TGI (SNB-19 CNS) [µM]	GI50 (SW-620 colon) [µM]	TGI (SW-620 colon) [µM]	GI50 (CAKI-1 renal) [µM]	TGI (CAKI-1 renal) [µM]	GI50 (SR leukemia) [µM]	TGI (SR leukemia) [µM]
COc1ccc(OC)c(/C=C/c2nc(=S)n(-c3ccc(Cl)cc3)[nH]2)c1	3.56	> 100	4.38	> 100	14.5	> 100	17.5	> 100	12.7	> 100	5.09	> 100	–	–	–	–
COc1cc2c(N3CCN(C(=O)Nc4ccc(OC(C)C)cc4)CC3)ncnc2cc1OCCCN1CCCCC1	6.24	33.1	31.8	97.7	14.4	32.4	16.2	38.6	22.2	> 100	14.6	38.8	17.4	> 54.9	9.55	46.2
C[C@]12CC[C@H]3[C@@H](CCC4=CC(=O)CC[C@@]43C)[C@@H]1CC[C@@H]2c1csc(N)n1	11	28.5	4.98	20.6	8.82	28.7	5.07	24.1	10.2	31.2	5.28	20.8	1.41	13.4	2.12	12.6
CN(C)CCCC1(c2ccc(F)cc2)OCc2cc(-c3cccc4[nH]ccc34)ccc21 (stereo not given)	1.25	2.81	1.33	2.73	1.49	2.9	1.58	3.03	1.74	3.26	1.77	3.54	1.41	2.77	0.973	2.97
COc1ccc2sc3c(NCCCN)nc4ccccc4c3c(=O)c2c1	1.36	3.39	1.67	3.19	1.52	3	1.66	3.44	–	–	1.76	3.44	1.6	3.06	0.832	3.22
CCn1c2c(c3ccccc3c1=O)C(=O)c1ccccc1-2	–	> 100	–	> 100	–	> 100	–	> 100	–	> 100	–	> 100	–	> 100	–	–
O=C1CC(c2ccccc2)Oc2ccccc21 (stereo not given)	–	62.8	–	> 100	–	94	–	> 100	–	83.4	–	–	–	> 100	–	50.6
O=C1c2cccc(Oc3ccccc3)c2C(=O)c2cccc(Oc3ccccc3)c21	8.98	51.2	> 100	> 100	44.8	> 100	39.8	> 100	9.56	72.1	> 100	> 100	> 100	> 100	77.5	> 100
CCN(CC)CCCNc1ccc(C)c2sc3ccccc3c(=O)c12	1.96	16.2	1.22	2.92	0.294	0.863	1.31	3.74	1.03	2.71	0.393	1.51	1.29	3.06	0.268	0.988
O=C1C=C[C@H](O)[C@@]2(CO)O[C@@H]12	4.77	14.6	10.1	29.8	15.5	30.1	15.3	29	18.9	48.9	2.23	5.33	3.04	19.3	4.64	> 100
COc1ccc2c(N)ncc(C#Cc3cc(C(=O)Nc4ccc(CN5CCN(C)CC5)c(C(F)(F)F)c4)cnc3C)c2c1	0.88	3.87	0.437	2.11	0.501	1.16	1.21	4.78	0.933	2.38	0.578	1.3	1.36	8.62	0.649	1.97
Cc1ccc2c(-c3ccnc(Nc4ccc5c(c4)OCCO5)n3)c(-c3ccc(C(F)(F)F)cc3)nn2n1	1.4	19.2	2.76	> 25	1.25	> 25	> 25	> 25	> 25	> 25	> 25	> 25	1.42	> 25	17	> 25
N#CC1(c2ccc(NC(=O)c3cccnc3NCc3ccncc3)cc2)CCCC1	19.3	> 100	20.5	> 89.8	11.3	52.8	27	> 100	27.7	> 100	24.2	72.1	16.8	> 85.9	13	39.5
Cc1cccc(NC(=O)c2sc3nc4c(cc3c2N)C(=O)CCC4)c1	1.8	> 74.9	0.68	> 60.8	0.585	> 44.5	3.07	> 100	0.464	> 100	0.212	> 65.8	0.368	> 100	0.445	> 100
CC(=O)O[C@H]1C(=O)[C@@]2(C)C([C@H](OC(=O)c3ccccc3)[C@]3(O)C[C@H](OC(=O)[C@H](O)[C@@H](NC(=O)c4ccccc4)c4ccccc4)C(C)=C1C3(C)C)[C@]1(OC(C)=O)CO[C@@H]1C[C@@H]2O (stereo not given in full)	0.054	> 50	0.41	> 50	0.0343	> 50	0.021	> 50	0.0135	> 50	< 0.005	> 50	–	> 50	< 0.005	> 50
O=[N+]([O-])c1ccc(Cl)c2c([N+](=O)[O-])cccc12	–	> 10	–	> 10	–	–	–	> 10	–	> 10	–	> 10	–	–	–	> 10
CCCCCCCCCCCC[N+]1(CCCCCCCCCCCC)CCCC(C)C1 (stereo not given)	–	–	–	–	–	–	0.293	1.25	–	–	0.303	1.33	–	1.92	–	–
O=c1c2ccccc2sc2c(CO)ccc(NCCN3CCCCC3)c12	–	20.9	–	15	–	19.4	–	13.1	–	17.6	–	11.2	–	13.3	–	7.71

Compound	GI50 (HOP-92 NSCLC) [µM]	TGI (HOP-92 NSCLC) [µM]	GI50 (IGROV1 ovarian) [µM]	TGI (IGROV1 ovarian) [µM]	GI50 (MDA-MB-231 breast) [µM]	TGI (MDA-MB-231 breast) [µM]	GI50 (SF-268 CNS) [µM]	TGI (SF-268 CNS) [µM]	GI50 (SNB-19 CNS) [µM]	TGI (SNB-19 CNS) [µM]	GI50 (SW-620 colon) [µM]	TGI (SW-620 colon) [µM]	GI50 (CAKI-1 renal) [µM]	TGI (CAKI-1 renal) [µM]	GI50 (SR leukemia) [µM]	TGI (SR leukemia) [µM]
c1ccc(-c2[nH]ncc2-c2ccnc(-c3ccc(OCCn4ccnc4)cc3)c2)nc1	> 25	> 25	> 25	> 25	> 25	> 25	> 25	> 25	> 25	> 25	> 25	> 25	> 25	> 25	> 25	> 25
Cn1nccc1Nc1nccc(-c2ccn([C@H](CO)c3ccc(Cl)c(F)c3)c(=O)c2)n1	1.36	40	22.9	> 100	5.96	> 100	38.1	> 100	27.6	> 100	5.02	30.4	34.3	> 100	25.1	> 100
CC(Br)C(=O)NC(CO)C(=O)O (stereo not given)	–	> 100	–	> 100	–	> 100	–	> 100	–	> 100	–	> 100	–	> 100	–	> 100
O=C(Nc1cccc(-n2cc(-c3ccncc3)c(-c3cc(O)cc(Cl)c3)n2)c1)c1ccc(N2CCOCC2)c(C(F)(F)F)c1	–	–	5.12	> 100	0.327	1.66	8.51	> 100	3.33	33.6	2.83	7.06	1.1	6	0.338	1.83
O=C(Nc1ccc(N=C=S)cc1Cl)c1cc(Br)cc(Br)c1O	–	56	–	39.8	–	46.2	–	> 100	–	64.3	–	72.3	–	> 100	–	62
Nc1ncnc2c1N=C(c1ccc3c(c1)OCO3)CC(c1ccc(Cl)cc1)N2 (stereo not given)	–	–	0.351	3.76	27	> 100	8.52	45.9	> 100	> 100	4.91	> 100	22.7	86.3	> 100	> 100
Nc1ncc(Cc2ccc3c(c2)OCO3)c(N)n1	–	> 100	–	> 100	–	> 100	–	> 100	–	> 100	–	> 100	–	> 100	–	> 100
CNCc1cccc2c1OCCOCCOCCN(C)S(=O)(=O)c1ccc(cc1)-c1cnc(N)c(n1)C(=O)N2	–	–	0.58	12.8	2.28	6.44	1.75	5.81	2.72	8.47	1.66	4.25	0.98	17.9	0.248	2.97
Cn1c([N+](=O)[O-])cnc1C=C1C(=O)c2ccccc2C1=O	1.65	6.1	3.56	18.5	2.72	10.1	3.95	16.7	15.1	44.5	3.34	13.1	3.56	14.2	1.87	10.5
O=[N+]([O-])c1ccccc1C1SCc2nc3ccccc3n21 (stereo not given)	–	> 100	–	> 100	–	–	–	> 100	–	> 100	–	> 100	–	> 100	–	> 100
COc1cc2c(cc1Nc1nc(N3CCc4ccccc43)c3cc[nH]c3n1)N(C(=O)CN(C)C)CC2	–	–	10.9	17.1	5.86	12.7	5.03	10.3	4.44	11.5	0.35	0.8	11	16.3	0.517	1.28
CSC1=Nc2c(c(C)c(C)n2COC(CO)CO)C2=NC(=O)CN12	> 100	> 100	–	–	> 100	> 100	> 100	> 100	> 100	> 100	> 100	> 100	> 100	> 100	> 100	> 100
Cc1c(C(=N)C(C#N)C#N)c(=N)oc2c1ccc1ccccc12	–	–	7.76	53.4	19.1	> 100	46.5	> 100	30.5	> 100	18.4	56.1	7.51	> 100	7.64	> 100
O=C(NCCNCCO)c1ccc2c(c1)oc1cc3ccccc3c(=O)n12	37.6	> 50	16.5	> 50	29.8	> 50	19.6	> 50	> 50	> 50	18.1	> 50	–	–	24.8	> 50
COc1ccc(OC)c(NCC(=O)n2nc(/C=C\c3ccc(O)c(OC)c3)cc2/C=C\c2ccc(O)c(OC)c2)c1	4.76	53.8	2.91	21	3.02	> 100	2.37	> 100	2.62	10.3	2.03	5.48	–	–	–	–
CCn1cc(C(=O)O)c(=O)c2cc(F)c(N3CCN(S(=O)(=O)c4cccc5ccccc45)CC3)cc21	1.25	5.43	2.47	7.49	1.91	4.71	4.39	> 100	3.47	> 100	3.57	> 100	–	–	–	–
N#Cc1nc2c(S(=O)(=O)c3ccc(Cl)cc3)c(N)n(Nc3cccc(Cl)c3)c2nc1C#N	–	0.099	0.0385	0.179	0.0178	0.0869	–	> 100	0.137	–	0.014	0.0733	0.0311	–	–	–
